| Structure (SMILES) | melting point [°C] |
| --- | --- |
| CN(C)C1CCN(c2nc(N3CCOCC3)c3ncnc(NCc4ccccc4)c3n2)CC1 | 148 to 150 |
| Cc1ccc(C2CCC(=NO)c3ccccc32)cc1 (centres undefined) | 97 to 101 |
| O=C(Nc1cccnc1)N1CCN(c2nccc(-c3ccc(F)cc3F)n2)CC1 | 206 to 207 |
| CCCn1nc2c(N)nc3ccccc3c2c1CCCc1cc(-c2ccccc2)on1 | 172 to 173 |
| COC(=O)c1ccc(-c2nc(-c3cc(Cl)sc3Cl)cs2)cc1 | 149 to 150 |
| Cc1cc(Cl)ccc1CCN(C(=O)C(C)Cl)c1ccccc1 (centres undefined) | 128 |
| OCc1cccc(-n2cccc2)n1 | 55 |
| CN1C(=O)CN=C(c2cccc(Cl)c2)c2cc(C(O)(c3ccc(Cl)cc3)c3cncn3C)ccc21 (centres undefined) | 226 |
| Cc1ccsc1C(=O)Nc1ccc(-n2nc(C(F)(F)F)cc2C(F)(F)F)cc1 | 185 to 188 |
| CCCCCCCCNC(=O)CSc1nc(Cl)cc(Nc2cccc(C)c2C)n1 | 144 to 146 |
| O=C1NCCc2ccc(OCCCCN3CCN(c4cccc5c4OCCC5)CC3)nc2N1 | 154 to 156 |
| CC(=O)SCC(Cc1ccccc1)C(=O)Nc1ccccc1C(=O)O (centres undefined) | 121 to 122 |
| COCCOc1cc2ncnc(NC3=CC(=O)C(NCc4cccc(C)c4)=CC3=O)c2cc1OC | 241 to 242 |
| CS(=O)(=O)c1cccc(S(C)(=O)=O)n1 | 192 to 195 |
| CN(C)C(=O)c1nc2n(n1)-c1ccc([N+](=O)[O-])cc1C(c1ccccc1)=NC2 | 209 to 211 |
| [O-][N+](=Cc1ccccn1)c1cccc(CO)c1 | 117 to 119 |
| CC(=O)NC(=S)NCCC1CC2c3cccc4[nH]cc(c34)CC2N(C)C1 (centres undefined) | 213 to 215 |
| CC(C)C(=O)NC1CCc2[nH]c3cc4c(cc3c2C1)OCO4 (centres undefined) | 198 to 200 |
| CN1C2CCC1CC(O)(c1ccc(Cl)c(Cl)c1)C2 (centres undefined) | 153 to 154 |
| CCON(C(=O)Cc1c(C)cc(Cl)cc1C)C1(C#N)CCN(OC)CC1 | 100 to 103 |
| CC(COc1ccc(C(N)=O)c(O)c1)NCC(O)COc1cccc2c1CCC(=O)N2 (centres undefined) | 239 to 245 |
| C[C@@H](c1ccc(-c2ccc(=O)n(C)c2)cc1)N1CC[C@](CC(C)(C)O)(c2ccccc2)OC1=O | 180 to 181 |
| Cc1c([N+](=O)[O-])cnn1-c1c(Cl)cc(C(F)(F)F)cc1Cl | 91 to 92 |
| N#Cc1cc(N)nc(SCc2ccc3ccccc3c2)n1 | 154 to 155 |
| N#Cc1cc(Cl)[nH]c1-c1oc2ccccc2c1Cl | 224 to 226 |
| CNC(=O)Oc1ccccc1Cl | 90 to 91 |

| Structure (SMILES) | melting point [°C] |
| --- | --- |
| CCCCCCCCCC(O)CNCCCCCCNCC(O)CCCCCCCCC (centres undefined) | 123 to 129 |
| CC1NC(=O)NN=C1c1ccc(OCC(=O)NN)c(Cl)c1 (centres undefined) | 252 to 254 |
| COCCCNc1nc(N)c(SC)c(F)n1 | 48 to 64 |
| NC(=O)[C@@H]1[C@H](Nc2c(Cl)cnc3[nH]c(-c4cnn(C5CCNCC5)c4)nc23)[C@H]2C=C[C@@H]1C2 | 203 to 205 |
| Nc1ncnc2c1ncn2C1CC(O)(C(=O)c2cccc(C(F)(F)F)c2)C(COC(=O)c2cccc(C(F)(F)F)c2)O1 (centres undefined) | 160 |
| CC1=CCc2c1sc1c2CN(c2ccccc2Cl)CC2N(C(=O)O)CCN12 (centres undefined) | 160 to 162 |
| O=C(NCc1ccc(Cl)cc1)c1cnc2sc(CN3CCOCC3)cc2c1O | 193 to 195 |
| O=c1cc(O)nc2cc(C(c3c(F)ccc(F)c3F)S(=O)(=O)CCC(F)(F)F)c(Cl)cn12 (centres undefined) | 264 |
| O=[N+]([O-])c1cccc(Oc2cc(Oc3cccc([N+](=O)[O-])c3)cc(C(F)(F)F)c2)c1 | 118 |
| CNC(=O)Nc1cc(-c2c(-c3ccc(F)c(C)c3)nc3cccnn23)ccn1 | 225 to 227 |
| CCCc1nc2cccc(C(=S)OC)c2n1Cc1ccc(-c2ccccc2)c(-c2nc(=O)o[nH]2)c1 | 220 to 221 |
| O=[N+]([O-])c1ccc(CN2CCCCc3sccc32)cc1 | 141 to 142 |
| CC(C)(C)c1ccc(/C=N/OCCCOc2ccc(CCC(=O)O)cc2)cc1 | 101 to 102 |
| NCC(=O)NC(Cc1cccnc1)c1ccccc1 (centres undefined) | 93.5 to 94.5 |
| CCN(CC)Cc1nc(-c2ncn3c2CN(C)C(=O)c2c(Cl)cccc2-3)no1 | 250 to 252 |
| CN1C(=O)C2(COc3cc4c(cc32)OCO4)c2c(C3CCOC3)cccc21 (centres undefined) | 182 to 184 |
| COc1ccc(-c2nc3n(c2-c2ccncc2)CCC3)cc1 | 158 |
| Cn1c(=O)ccc2cnc(NCc3ccccc3)nc21 | 160 to 162 |
| Clc1ccc2c(c1)C(c1ccccc1)=NCc1nnc(Cc3ccccc3)n1-2 | 190 to 192 |
| O=C(NC[C@H]1CN(c2ccc(N3CCN(C(=O)OCc4ccccc4)CC3)c(F)c2)C(=O)O1)C(F)F | 147 |
| CCCCCCCCCCCCS(=O)(=O)Nc1cc(NC(=O)c2ccc(F)c(F)c2)ccc1OC | 132 |
| CCCCCOc1ccc(C(=O)Nc2ccc3cc(CN4CCCC4)cnc3c2C)cc1 | 155 |
| OCCc1c(-c2ccccc2)nc(Cl)n2ncnc12 | 104 to 105 |
| Fc1cccc2c(CCCc3ccc(Cl)cc3)ccnc12 | 97 |
| CC(C)CC1=NC=C2C=CC(=O)NC3=C2N1CC3 | 211 to 212 |
| CCc1nc2ccccc2c(=O)n1CCCOc1ccc(SC(C)(C)C(=O)O)cc1 | 156 to 158 |

More lines, now with the values ahead:

| melting point [°C] | Structure (SMILES) |
| --- | --- |
| 165 to 166 | CCOC(=O)COc1ccc(C(=O)Nc2ccccc2Oc2cccc(-c3nnn[nH]3)c2)cc1 |
| 103 to 104 | COc1c(C)c(C)cc(C)c1C(O)(c1ccc(C)cc1)C(C)C (centres undefined) |
| 80 to 81 | CC(=O)c1c(C)sc(-c2ccncc2)c1C |
| 178 to 179 | O=C(SSCCSSC(=O)N1CCOCC1)N1CCOCC1 |
| 211 to 213 | Cc1ccc(Cl)c2c(C)c(C(=O)O)[nH]c12 |
| 207 to 209 | O=c1[nH]c2cc(F)c([N+](=O)[O-])cc2o1 |
| 123 to 125 | O=c1c2ccc(Cl)cc2ncn1CCCCn1ccnc1 |
| 204 to 206 | Nc1ccc([N+](=O)[O-])cc1S(=O)(=O)N1CCOCC1 |
| 143 to 146 | Oc1cccc2c1CC1OC1C2 (centres undefined) |
| 223 to 224 | COC(=O)NNc1n[nH]c2cc(Cl)ccc12 |
| 134 | COc1ccc(C(=O)NCCBr)c([N+](=O)[O-])c1 |
| 141 to 142 | O=C(OCC1c2ccccc2-c2ccccc21)N1Cc2cccn2Cc2ccccc21 |
| 152 | CCOc1ccc2ccc(NC(=O)c3ccc(OC)cc3)nc2n1 |
| 346 | Cn1cc(C(=O)O)c(=O)c2c3cc(F)c(N4CCN(c5ccc(F)cc5)CC4)cc3ncc21 |
| 114 to 115 | CC(C)C1NC(NC(=O)CCC2CCCCC2)C(=O)N(C)c2ccccc21 (centres undefined) |
| 98 | COC(OC)c1ccc(C=C2C(=O)C3(C)CCC2C3(C)C)cc1 (centres undefined) |
| 119 to 120 | CCCC1Sc2c(cc(OC)c(Cl)c2Cl)C1O (centres undefined) |
| 168 to 169 | Cc1ccc(C)c(-c2cc(C#N)c(NC(=O)[C@@H]3C[C@@H]4CC[C@H]3C4)s2)c1 |
| 124 to 126 | CCCc1nc(C(=O)OC)c(C(=O)OC)n1Cc1ccc(-c2ccccc2-c2nnnn2C(c2ccccc2)(c2ccccc2)c2ccccc2)cc1 |
| 199 to 201 | CN(C)c1ccc(N2CCN(Cc3c[nH]c4ncccc34)CC2)cc1 |
| 125 | CCCCCN1C(=O)C(CCC(=O)O)(NC(=O)c2cc3ccccc3n2CCC#N)c2ccccc21 (centres undefined) |
| 210 to 213 | CC1CCC2Oc3ccc(Cl)cc3C(=O)N2O1 (centres undefined) |
| 65 to 72 | CC(OS(C)(=O)=O)C(=O)O (single isomer, unassigned; (-)) |
| 91 to 93 | CC(C(=O)O)c1ccc2oc(Cc3ccc(F)cc3)nc2c1 (centres undefined) |

| melting point [°C] | Structure (SMILES) |
| --- | --- |
| > 275 | N#Cc1ccc(N2CCc3[nH]c4c(cnc5cc(Cl)ccc54)c3C2)cc1 |
| 100 | Cc1cc(CN(Cc2cccs2)c2sc(-c3ccc(C(F)(F)F)cc3)nc2C)ccc1OC(C)(C)C(=O)O |
| 102 to 104 | c1cc2c3c(cccc3c1)C(NOCCCn1ccnc1)=N2 |
| 139 to 141 | S=C(NCCCCN(Cc1ccc(Cl)c(Cl)c1)c1ccc(Br)cn1)NCCCn1ccnc1 |
| > 300 | OCc1ccc(-c2cc3c(Nc4ccc(F)c(Cl)c4)ncnc3[nH]2)cc1 |
| 182 to 184 | COc1cc(C2c3cc4c(cc3C(NC3=CC(=O)N(Cc5ccc(F)cc5)C3=O)C3COC(=O)C23)OCO4)cc(OC)c1O[Si](C)(C)C(C)(C)C (centres undefined) |
| > 200 | CCOC(=O)CC[C@H](NC(=O)c1ccc(CCc2cnc3nc(NC(C)=O)nc(O)c3c2)cc1)C(=O)OCC |
| 62 to 64 | CC1=CCCC2C1(C)CCC(C)C2(C)CC1=CC(=O)C=CC1=O (centres undefined) |
| 107 to 109 | CCCCC(C)C(=O)C=P(c1ccccc1)(c1ccccc1)c1ccccc1 (centres undefined) |
| 131 to 133 | CCCCCCc1nc(N)n2nc(-c3ccco3)nc2n1 |
| 135 to 138 | O=C(CCC1CCCC1)Nc1cccc2ncccc12 |
| 119 to 120 | O=C(CCCCCNC(=O)OCc1ccccc1)N[C@@H](Cc1ccccc1)C(=O)O |
| 150 to 156 | COCC(C)NC1=NS(=O)(=O)c2cc(Cl)cnc2N1 (centres undefined) |
| 149 to 151 | COc1ccc2cc(-c3cnc(-c4ccccc4)o3)ccc2c1 |
| 171 to 172 | CCOC(=O)c1ccc(N=C(Nc2ccc(C(=O)OCC)cc2)c2ccc(Cl)cc2)cc1 |
| 166 to 168 | COC(=O)C(OC)c1nsc2ccc(-n3c(=O)cc(C(F)(F)F)n(C)c3=O)cc12 (centres undefined) |
| 158 to 160 | N#CCc1c(-c2ccccc2)sc2ccc(Cl)cc12 |
| 95 to 97 | COCCNc1nccc(Oc2ccc(NC(=O)c3cc(F)cc(N4CCOCC4)c3)c3ccccc23)n1 |
| 192 to 194 | COc1cccc(-c2nc3ccc(OC(F)(F)F)cc3[nH]2)c1 |
| 163 | COc1nc(NC(=O)NS(=O)(=O)c2c(C)cccc2OC)nc(OC)n1 |
| 260 to 261 | O=C(O)c1ccc(-c2cc(=O)n(-c3ccccc3)s2)cc1 |
| 128 to 129 | CCC1(CC)COP(=O)(Cc2ccc(N)cc2)OC1 |
| 115 | CCOC(=O)C(C(=O)N(C)C)=C(OCc1ccccc1)c1ccc(Cl)cc1Cl |

From a melting point compilation (Tetko et al.; mined from patent text by program, amines drawn as free bases though some values may be those of a salt)
